Assay results reported in patent US10898436B2, “Nanoparticle compositions for generation of regulatory T cells and treatment of autoimmune diseases and other chronic inflammatory conditions” (Topas Therapeutics GmbH, priority 2011, dated 2021).
No end group written: not given here.

Assays:
[1] = system: MBP-induced EAE in B10.PL mice; assay: MBP-induced EAE in B10.PL mice with Treg depletion by PC61 antibody; assay type: in vivo
Method: (§1) FIG. 8: Nanoparticle-based delivery of neuroantigen peptides to LSEC prevents EAE induction. EAE was induced in B10.PL wildtype mice (A, E) or tg4 mice (B) by immunization to MBP. In C57BL/6 wildtype mice (C) or hCD2-ΔkTβRII mice (D), EAE was induced by immunization to MOG. One day after EAE induction, mice were injected once intravenously with PBS (A-E) or neuroantigen peptide-loaded nanoparticles (MBP-NP (A, B, E) or MOG-NP (C, D,). As control, mice received equivalent amounts of unloaded NP (A, C) or unconjugated MBP peptide (B,). E, Twice per week, mice treated with MBP-NP were intraperitoneally injected with Treg-depleting PC61 antibody (MBP-NP/Treg-depleted) or isotype-matched control antibody (MBP-NP). Shown are mean EAE scores±s.e.m. (n=5-7).
FIG. 13: Depletion of CD25+Foxp3+CD4+ Treg in vivo by repeated PC61 antibody-administration. B10.PL mice were immunized to MBP peptide and treated on the next day with PBS (n=7) or MBP peptide-coupled nanoparticles (MBP-NP). Mice, which received MBP-NP, were then either treated twice per week with Treg-depleting PC61 antibody (n=5) or non-depleting isotype-matched control antibody (n=6). Mice were sacrificed on day 29 post immunization and spleens were analyzed for Treg depletion efficiency by flow cytometry. Results are depicted as mean % of CD25+Foxp3+of CD4+ T cells±s.e.m. (PBS 17.16±0.3422; MBP-NP+isotype 15.08±0.8594; MBP-NP+PC61 3.160±0.4643; P<0.001). For comparison of multiple groups, one-way ANOVA and Tukey's post test were performed.
As the inventors have shown above that tolerance induction by LSEC required TGFβ signaling to T cells, they reasoned that nanoparticle-based targeting of autoantigen peptides to LSEC should be ineffective in mice with TGFβ-insensitive T cells. […] Thus, it can be concluded that also in vivo, the efficacy of nanoparticle-mediated tolerance induction is dependent on TGFβ signaling to T cells. […]

EAE in tg4 mice = assay: Prevention of MBP-induced EAE in tg4 mice; assay type: in vivo; conditions: single injection one day after EAE-induction, tg4 mice (FIG. 8B)
Method: as §1
(§2) The proposed immunosuppressive effect of MBP-nanoparticles in vivo was first tested in MBP-induced EAE in B10.PL mice (FIG. 8A). […] To confirm the efficacy of the inventive treatment approach in another independent disease model, the effect of nanoparticles loaded with myelin oligodendrocyte glycoprotein (MOG) peptides on the development of MOG-induced EAE was tested in C57BL/6 mice.

[2] = system: experimental autoimmune encephalomyelitis (EAE) in B10.PL mice; assay: Treatment of EAE with autoantigen-loaded nanoparticles (Example 4); assay type: in vivo; conditions: injected into B10.PL mice one day after EAE induction by Ac1-9 MBP peptide (FIG. 5)
Method: For covalent conjugation of neuroantigen peptide (encephalitogenic Ac1-9 peptide derived from the amino acid sequence of myelin basic protein), iron oxide-core nanoparticles were synthesized as described in example 3 and adjusted to a concentration of 6 μmol/L in 50 mM SBB-buffer (pH=9). An equal amount of 1-Ethyl-3-(3-dimethylaminopropyl)carbodiimide (c=[…]), dissolved in a 50 mM SBB-buffer (pH=9), was added. After 5 minutes, a 1000-fold excess of the neuroantigen peptide was added and the solution was incubated under rotation for 2h at room temperature and then overnight at 4° C. On the next day, the solution was filtered under centrifugal force in a filter device (100 kDa, 2500 g, 4° C.) and the remnant resuspended in PBS. This procedure was repeated 20 times to remove all excess peptide. The obtained peptide-particle conjugates were dissolved in PBS and subjected to size-exclusion-chromatography to assure for the absence of free peptide. Then, the iron content was measured to determine the concentration of the peptide-particle suspension.
Results: The thus obtained peptide-loaded nanoparticles or, as control, unconjugated peptide-free nanoparticles were then injected into B10.PL mice (n=6), one day after induction of experimental autoimmune encephalomyelitis (EAE) by immunization to Ac1-9 myelin basic protein peptide (25).

LSEC = assay: Cellular tropism of peptide-nanoparticle conjugates in liver (intravital confocal microscopy, electron microscopy); assay type: in vivo, mice
Method: (§3) FIG. 7: Targeted delivery of MBP peptides to LSEC with nanoparticles. A) Plasma clearance rates of MBP peptide coupled to ^59Fe-NP (MBP-^59Fe-NP) and ^14C-MBP peptide coupled to unlabeled NP(^14C-MBP-NP). B) Organ distribution of MBP-^59Fe-NP and ^14C-MBP-NP 60 min after intravenous injection. Mean values±s.e.m. are shown (n=4). C) Representative coronal and transversal MR images of mice pre and post injection of unloaded NP or MBP-NP. D) Intravital confocal microscopy of the liver showing uptake of MBP-NP or unloaded NP by LSEC. Nuclei were also stained. right panel: LSEC (FITC-dextran), left panel: quantum dot-labeled NP; scale bar: 20 μm. E) Electron microscopy of liver, 60 min after intravenous injection of MBP-NP or unloaded NP.
(§4) To further investigate the cellular tropism of administered peptide-nanoparticle conjugates, conventional as well as intravital confocal fluorescence microscopy of the liver was performed, using nanoparticles with a fluorescent quantum dot core (44). Prior to administration of fluorescent MBP peptide-nanoparticle conjugates, recipient mice were injected with FITC-dextran that is rapidly absorbed by LSEC. […] To confirm that delivered peptide can be presented to T cells, Treg conversion in vitro by LSEC in the presence of free MBP peptide or of MBP peptide bound to nanoparticles (MBP-NP) was studied.

[3] = Zeta potential measurement (Malvern Zetasizer Nano-ZS); assay type: physicochemical; conditions: 20° C.
Method: FIG. 12: Characteristics of NP and MBP-NP. A) The Zeta potentials of NP and MBP-NP were measured at 20° C. using a Malvern Zetasizer Nano-ZS instrument. […] No differences in size could be detected by B) size exclusion chromatography (MBP-NP: left line; NP: right line) or C) by transmission electron microscopy. For electron microscopy, samples were stained with 1% sodium silicotungstate, pH 7, so that the organic shell appears light and the iron oxide core dark.

[4] = Organ uptake by dynamic magnetic resonance imaging; assay type: in vivo, mice; conditions: FIG. 7C
Method: as §3
(§5) To develop a method for selective delivery of autoantigen to LSEC in vivo, the inventors made use of nanoparticles (NP) that are rapidly cleared from the circulation through uptake by liver cells. Specifically, the inventors took advantage of a polymer-coated nanoparticle (43), which they observed to accumulate selectively in liver sinusoidal endothelium (data not shown). […] Low amounts of radioactivity could be detected in spleen and kidney, whereas uptake into other organs was negligible. […]

[5] = system: Splenic CD4+Foxp3− T cells from tg4×Foxp3gfp.KI mice; assay: Treg conversion by LSEC in vitro with nanoparticle-conjugated or free MBP peptide; assay type: cell-based; conditions: co-culture with LSEC, TGFβ 2 ng/ml, MBP peptide 5 ng/ml or equivalent dose, four days, flow cytometry (FIG. 11); in % (unit assumed)
Method: FIG. 11: Efficient Treg conversion by LSEC in vitro using nanoparticle-conjugated MBP peptide or free MBP peptide. Splenic CD4+Foxp3− T cells from tg4×Foxp3gfp.KI mice were co-cultured with LSEC in the presence of TGFβ (2 ng/ml) and free MBP peptide (5 ng/ml) or an equivalent dose of MBP peptide coupled to nanoparticles (MBP-NP) for four days. Foxp3 induction in CD4+ T cells was then analyzed by flow cytometry. For statistical analysis, Mann-Whitney test was performed (free MBP: 32.16±1.075; MBP-NP: 29.63±1.558; P=0.2857). n.s.=not significant.
as §4

[6] = system: MBP-induced EAE in B10.PL mice; assay: Prevention of MBP-induced EAE in B10.PL mice; assay type: in vivo; conditions: single intravenous injection one day after EAE-induction, B10.PL mice (FIG. 8A)
Method: as §1, §2

[7] = set-up: species or system mice; conditions: mouse, in vivo, iv
Method: as §3, §5

CD4+CD25− T cells = assay: Generation of Treg cells from CD4+CD25− non-regulatory T cells by antigen presenting cells; assay type: cell-based, mouse
Method: Mouse liver non-parenchymal cells were isolated applying a protocol modified from (28). Briefly, mouse livers were perfused with 0.05% collagenase IV (Sigma; Taufkirchen, Germany) in Gey's balanced salt solution, mechanically dissected and further digested in 0.05% collagenase IV in Gey's balanced salt solution for 25 minutes at 37° C. at constant rotation (240 rpm). Hepatocytes and debris were sedimented twice at 40 g and non-parenchymal cells were recovered by centrifugation over a 17% Optiprep (Sigma) gradient at 400 g.
Liver sinusoidal endothelial cells (LSEC) were purified from the non-parenchymal cells as described (29) by magnetic sorting with the ME-9F1 antibody (Miltenyi Biotech, Bergisch-Gladbach, Germany). LSEC were seeded on collagen-coated culture plates (Serva, Heidelberg, Germany). After overnight culture in Iscove's modified Dulbecco's medium supplemented with 5% FCS, non-adherent cells were removed by medium change. Accordingly, Kupffer cells were purified from the non-parenchymal cells by magnetic sorting with biotinylated F4/80 antibody (eBioscience, Frankfurt, Germany) and anti-biotin microbeads (Miltenyi).
Alternatively, hepatocytes were isolated from mouse livers as described (30); and dendritic cells were isolated from mouse spleen by magnetic cell separation for CD11c as described (30).
10^5 LSEC, 10^5 Kupffer cells, or 5×10^3 hepatocytes were seeded into 96-well plates, and used on the following day for stimulation of CD4+CD25− T cells. Alternatively, 5×10^4 dendritic cells, were seeded into 96-well plates, and used on the same day for stimulation of CD4+CD25− T cells. These CD4+CD25− non-regulatory T cells were isolated from mouse spleens by magnetic cell separation, and 5×10^5 purified lymphocytes per well were then stimulated on the indicated antigen presenting cells in serum-free medium (Pan Biotech, Aidenbach, Germany) with solute antibody to CD3 (BD Bioscience, Heidelberg, Germany). After four days of culture, the T cells were harvested and analysed by flow cytometry for the percentage of CD4+CD25+FOXP3+ Treg cells. […]

MBP-NP: Ac1-9 myelin basic protein peptide covalently conjugated by carbodiimide to polymer-coated iron oxide-core nanoparticles (Ac-MGNHSGKRE; also: carbodiimide-conjugated to polymer-coated iron oxide nanoparticles; UniProt P04370 1-9, looked up, fragment)
protection from EAE ([1]; Treg-depleted mice (repeated PC61 antibody) (FIG. 8E)): could not prevent the development of disease | protection from EAE ([1]; control mice (isotype-matched control antibody) (FIG. 8E)): induced protection from EAE | mean % of CD25+Foxp3+of CD4+ T cells±s.e.m. ([1]; spleens, day 29 post immunization, flow cytometry, B10.PL mice (FIG. 13)): 15.08±0.8594% | clinical EAE (EAE in tg4 mice): protected from disease | protection from clinical EAE [2]: complete protection from clinical EAE | uptake by LSEC by transmission electron microscopy (LSEC; 60 min after intravenous injection (FIG. 7E)): sizeable internalization | localisation in liver by intravital confocal fluorescence microscopy (LSEC; quantum dot core, intravenous injection, FITC-dextran stained LSEC (FIG. 7D)): co-localized with FITC-dextran stained LSEC | averaged Zeta-potential [3]: −61.6 mV | organ uptake by dynamic magnetic resonance imaging [4]: only hepatic targeting | Foxp3 induction in CD4+ T cells [5]: 29.63±1.558 | clinical EAE [6]: lasting and almost complete protection from clinical EAE

MBP-^59Fe-NP: 59Fe-radiolabeled nanoparticles conjugated to non-labeled MBP peptide (MGNHSGKRE; also: conjugated to 59Fe-labelled nanoparticles; UniProt P04370 1-9, looked up, fragment)
plasma clearance kinetics of radiolabel [7]: cleared with similar kinetics

TGFβ: exogenous cytokine added to some stimulation cultures
percentage of CD4+CD25+FOXP3+ Treg cells among stimulated T cells (CD4+CD25− T cells; LSEC-stimulated T cells, in the presence of TGFβ, four days of culture): 38% | percentage of CD4+CD25+FOXP3+ Treg cells among stimulated T cells (CD4+CD25− T cells; dendritic cell-stimulated T cells, in the presence of exogenous TGFβ, four days of culture): 7.5% | percentage of CD4+CD25+FOXP3+ Treg cells among stimulated T cells (CD4+CD25− T cells; liver cell-stimulated T cells (LSEC, Kupffer cells and hepatocytes), in the presence of exogenous TGFβ): at least 20%

^14C-MBP-NP: 14C-radiolabeled MBP peptide coupled to unlabeled NP (MGNHSGKRE; also: 14C label, nanoparticle conjugate; UniProt P04370 1-9, looked up, fragment)
plasma clearance kinetics of radiolabel [7]: cleared with similar kinetics

free MBP peptide: encephalitogenic Ac1-9 peptide derived from the amino acid sequence of myelin basic protein, not coupled (Ac-MGNHSGKRE; UniProt P04370 1-9, looked up, fragment) [reference compound]
clinical EAE (EAE in tg4 mice): developed severe EAE | Foxp3 induction in CD4+ T cells [5]: 32.16±1.075
